Measured values from PubChem BioAssay AID2060500 (Molecular Pharmacology Branch, DTP, NCI, 2025).

System: 596521-263-R-J1-PDC complex spheroids, viability % of control
Assay: Anticancer human tumor 596521-263-R-J1-PDC patient-derived soft tissue sarcoma cell line growth inhibition [GQUAD]
Conditions: for IC50: curve of first compound; for viability, T/C: stronger effect = lower value; active = viability on the fitted dose curve at most 10% of control; inactive = the rest
Procedure, shortened: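 Tumor cells were grown as complex spheroids with HUVEC endothelial cells and mesenchymal stem cells as stroma. G-quadruplex stabilizers were combined with targeted agents over half-log dilutions from near the clinical Cmax, or from 10 microM.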

[1] = second compound 0.0316 µM, first compound 0.0316 µM
[2] = second compound 0.0316 µM, first compound 0.1 µM
[3] = second compound 0.0316 µM, first compound 0.316 µM
[4] = second compound 0.0316 µM, first compound 1 µM
[5] = second compound 0.0316 µM, first compound 3.16 µM
[6] = second compound 0.0316 µM, first compound 10 µM
[7] = second compound 0.1 µM, first compound 0.0316 µM
[8] = second compound 0.1 µM, first compound 0.1 µM
[9] = second compound 0.1 µM, first compound 0.316 µM
[10] = second compound 0.1 µM, first compound 1 µM
[11] = second compound 0.1 µM, first compound 3.16 µM
[12] = second compound 0.1 µM, first compound 10 µM
[13] = second compound 0.316 µM, first compound 0.0316 µM
[14] = second compound 0.316 µM, first compound 0.1 µM
[15] = second compound 0.316 µM, first compound 0.316 µM
[16] = second compound 0.316 µM, first compound 1 µM
[17] = second compound 0.316 µM, first compound 3.16 µM
[18] = second compound 0.316 µM, first compound 10 µM
[19] = second compound 1 µM, first compound 0.0316 µM
[20] = second compound 1 µM, first compound 0.1 µM
[21] = second compound 1 µM, first compound 0.316 µM
[22] = second compound 1 µM, first compound 1 µM
[23] = second compound 1 µM, first compound 3.16 µM
[24] = second compound 1 µM, first compound 10 µM
[25] = second compound 3.16 µM, first compound 0.0316 µM
[26] = second compound 3.16 µM, first compound 0.1 µM
[27] = second compound 3.16 µM, first compound 0.316 µM
[28] = second compound 3.16 µM, first compound 1 µM
[29] = second compound 3.16 µM, first compound 3.16 µM
[30] = second compound 3.16 µM, first compound 10 µM
[31] = second compound 10 µM, first compound 0.0316 µM
[32] = second compound 10 µM, first compound 0.1 µM
[33] = second compound 10 µM, first compound 0.316 µM
[34] = second compound 10 µM, first compound 1 µM
[35] = second compound 10 µM, first compound 3.16 µM
[36] = second compound 10 µM, first compound 10 µM
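Also: spheroids exposed to drugs for 7 days before viability reading.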
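For viability, T/C in this document: 100% = DMSO vehicle control viability.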

Cc1cccc(N(C)C(=O)C2C(O)CCN2c2nc(C)cc(C(F)(F)F)c2C#N)c1 (centres undefined) + CN(C)c1ccc(Nc2c3ccc(NC(=O)CCN4CCCC4)cc3nc3cc(NC(=O)CCN4CCCC4)ccc23)cc1
> 10 µM: IC50 (second compound 0.0316 µM) | IC50 (second compound 0.1 µM) | IC50 (second compound 0.316 µM) | IC50 (second compound 1 µM) | IC50 (second compound 3.16 µM) | IC50 (second compound 10 µM)
inactive: viability, T/C [1] 108% | viability, T/C [2] 99% | viability, T/C [3] 89.8% | viability, T/C [4] 94.1% | viability, T/C [5] 101% | viability, T/C [6] 101% | viability, T/C [7] 118% | viability, T/C [8] 95.7% | viability, T/C [9] 91.6% | viability, T/C [10] 109% | viability, T/C [11] 95.5% | viability, T/C [12] 109% | viability, T/C [13] 102% | viability, T/C [14] 102% | viability, T/C [15] 100% | viability, T/C [16] 115% | viability, T/C [17] 113% | viability, T/C [18] 102% | viability, T/C [19] 90.6% | viability, T/C [20] 103% | viability, T/C [21] 105% | viability, T/C [22] 105% | viability, T/C [23] 97.6% | viability, T/C [24] 88% | viability, T/C [25] 88% | viability, T/C [26] 98.1% | viability, T/C [27] 95.8% | viability, T/C [28] 91% | viability, T/C [29] 85.9% | viability, T/C [30] 87.7% | viability, T/C [31] 62.7% | viability, T/C [32] 63.6% | viability, T/C [33] 72.9% | viability, T/C [34] 63.7% | viability, T/C [35] 58.8% | viability, T/C [36] 47.8%

CC(C)(O)C1CCC(Nc2ccc3ncc(-c4cccc(C(F)(F)F)c4)n3n2)CC1 (centres undefined) + Cc1[nH]c2ccc(F)cc2c1-c1nc2c3cccnc3c3ncccc3c2[nH]1
> 10 µM: IC50 (second compound 0.0316 µM) | IC50 (second compound 0.1 µM) | IC50 (second compound 0.316 µM) | IC50 (second compound 1 µM) | IC50 (second compound 3.16 µM) | IC50 (second compound 10 µM)
inactive: viability, T/C [1] 98.3% | viability, T/C [2] 96.8% | viability, T/C [3] 97.9% | viability, T/C [4] 101% | viability, T/C [5] 102% | viability, T/C [6] 87.2% | viability, T/C [7] 120% | viability, T/C [8] 92.5% | viability, T/C [9] 92.3% | viability, T/C [10] 100% | viability, T/C [11] 96.4% | viability, T/C [12] 81.7% | viability, T/C [13] 98.5% | viability, T/C [14] 90.6% | viability, T/C [15] 103% | viability, T/C [16] 92.3% | viability, T/C [17] 103% | viability, T/C [18] 82.9% | viability, T/C [19] 90.7% | viability, T/C [20] 88.5% | viability, T/C [21] 98.5% | viability, T/C [22] 101% | viability, T/C [23] 106% | viability, T/C [24] 79.5% | viability, T/C [25] 89.3% | viability, T/C [26] 96.5% | viability, T/C [27] 94.1% | viability, T/C [28] 83.2% | viability, T/C [29] 95.2% | viability, T/C [30] 80.6% | viability, T/C [31] 77.7% | viability, T/C [32] 92% | viability, T/C [33] 91% | viability, T/C [34] 86.4% | viability, T/C [35] 84.9% | viability, T/C [36] 68.6%
